# Source: the supplement of paper PMC10331698
# ± gives the standard deviation of the averaged measurements.
# Legend:
# Assay in all cases: level (log10 ratio to DMSO vehicle control); higher = higher biomarker level / cell amount than vehicle control
# Conditions in all cases: in DMSO
# [1] = compound: FC(F)C(F)(F)COCC1CO1 [((2,2,3,3-Tetrafluoropropoxy)methyl)oxirane]
# Description: (§1)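 BioMAP Diversity Plus panel of 12 human primary cell co-culture systems (3C, 4H, LPS, SAg, BT, BF4T, BE3C, CASM3C, HDF3CGF, KF3CT, MyoF, Mphg). Compounds were added 1 h before stimulation and left for 24 h (MyoF 48 h; BT 72 h for soluble read-outs or 6 d for IgG). Biomarkers were read by ELISA, cytotoxicity by SRB, PBMC viability and proliferation by Alamar Blue. Each well value was divided by the mean of 8 DMSO control wells on the same plate and log10 transformed; duplicate blinded samples were tested at 4 concentrations.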
# [2] = compound: C=C(C)C(=O)OCCC(F)(F)C(F)(F)C(F)(F)C(F)(F)C(F)(C(F)(F)F)C(F)(F)F [(Perfluoro-5-methylhexyl)ethyl 2-methylprop-2-enoate]
# Description: as §1
# [3] = compound: O=C(O)C(F)(F)C(F)(F)C(F)(F)C(F)(F)C(F)(F)C(F)(F)F [Perfluoroheptanoic acid]
# Description: as §1
# [4] = compound: O=C(O)C(F)(F)C(F)(F)C(F)(F)C(F)(F)C(F)(F)C(F)(F)C(F)(F)C(F)F [9-H-Perfluorononanoic acid]
# Description: as §1
# [5] = compound: O=C(O)C(F)(F)C(F)(F)OC(F)(F)F [Perfluoro-3-methoxypropanoic acid]
# Description: as §1
# [6] = compound: O=C(O)C(F)(F)OC(F)(F)C(F)(F)OC(F)(F)F [Perfluoro-3,6-dioxaheptanoic acid]
# Description: as §1
Test System,level (log10) ([1]; 6700 nM),level (log10) ([1]; 20000 nM),level (log10) ([1]; 60000 nM),level (log10) ([2]; 6700 nM),level (log10) ([2]; 20000 nM),level (log10) ([3]; 6700 nM),level (log10) ([3]; 20000 nM),level (log10) ([3]; 60000 nM),level (log10) ([4]; 6700 nM),level (log10) ([4]; 20000 nM),level (log10) ([4]; 60000 nM),level (log10) ([5]; 6700 nM),level (log10) ([5]; 20000 nM),level (log10) ([5]; 60000 nM),level (log10) ([6]; 6700 nM),level (log10) ([6]; 20000 nM),level (log10) ([6]; 60000 nM)
HDF3CGF:CXCL11/I-TAC,0.027 ± 0.013,-0.0005 ± 0.0035,0.003 ± 0.0057,-0.013 ± 0.0014,-0.0155 ± 0.013,-0.0165 ± 0.013,0.003 ± 0.011,0.01 ± 0.016,-0.059 ± 0.0085,-0.078 ± 0.0099,-0.09 ± 0.021,-0.001 ± 0.023,0.0165 ± 0.012,0.0105 ± 0.00071,-0.017 ± 0.0057,-0.0035 ± 0.022,-0.0035 ± 0.012
HDF3CGF:Collagen I,-0.03 ± 0.0042,-0.038 ± 0.013,0.022 ± 0.11,0.0115 ± 0.067,0.034 ± 0.092,-0.036 ± 0.045,-0.009 ± 0.024,0.0395 ± 0.061,-0.0315 ± 0.1,0.009 ± 0.096,0.015 ± 0.052,-0.0095 ± 0.07,-0.0085 ± 0.052,0.058 ± 0.025,0.0055 ± 0.0064,0.049 ± 0.0085,0.069 ± 0.0014
HDF3CGF:Collagen III,-0.002 ± 0.037,-0.0115 ± 0.00071,-0.0035 ± 0.011,-0.0195 ± 0.05,0.0105 ± 0.05,-0.021 ± 0.011,-0.0385 ± 0.033,-0.013 ± 0.016,-0.047 ± 0.013,-0.115 ± 0.013,-0.155 ± 0.057,-0.0025 ± 0.0078,0.009 ± 0.024,0.039 ± 0.05,0.0025 ± 0.0078,0.0225 ± 0.0035,0.0375 ± 0.022
HDF3CGF:EGFR,0.012 ± 0.014,0.0065 ± 0.005,0.029 ± 0.041,-0.0695 ± 0.0078,-0.0415 ± 0.0064,-0.008 ± 0.016,0.004 ± 0.0028,0.01 ± 0.023,-0.011 ± 0.0028,-0.024 ± 0.0057,-0.034 ± 0.014,-0.002 ± 0.0085,0.003 ± 0.0085,0.0165 ± 0.029,0.033 ± 0.0071,0.031 ± 0.047,0.048 ± 0.054
HDF3CGF:M-CSF,0.009,-0.001 ± 0.033,-0.001 ± 0.013,-0.0175 ± 0.0078,-0.0175 ± 0.0035,-0.009 ± 0.0099,0.0025 ± 0.015,0.01 ± 0.0014,-0.067 ± 0.0028,-0.0835 ± 0.011,-0.05 ± 0.027,-0.005 ± 0.0085,-0.0035 ± 0.0021,-0.005 ± 0.0085,-0.015 ± 0.0099,-0.013 ± 0.0042,-0.0105 ± 0.05
HDF3CGF:MMP-1,0.0085 ± 0.012,0.0175 ± 0.0064,0.0125 ± 0.023,0.002 ± 0.0085,0.008 ± 0.018,-0.0105 ± 0.012,0.0025 ± 0.00071,0.0065 ± 0.005,-0.047 ± 0.011,-0.0915 ± 0.013,-0.0745 ± 0.0078,-0.01 ± 0.011,0 ± 0.0071,-0.0035 ± 0.021,-0.009 ± 0.0099,0.0085 ± 0.013,-0.014 ± 0.03
HDF3CGF:PAI-I,0.0065 ± 0.016,0.0065 ± 0.0064,0.0035 ± 0.011,-0.037 ± 0.0028,-0.0385 ± 0.019,-0.017 ± 0.0028,-0.0215 ± 0.0035,-0.008 ± 0.041,-0.0135 ± 0.0092,0.004 ± 0.0028,0.0175 ± 0.023,0.0025 ± 0.0092,0.0135 ± 0.026,0.0185 ± 0.012,-0.0525 ± 0.00071,0.0225 ± 0.037,0.06
HDF3CGF:Proliferation 72hr,-0.054 ± 0.0057,-0.023 ± 0.0042,-0.099 ± 0.0014,-0.015 ± 0.0028,-0.014,-0.054 ± 0.033,0.0515 ± 0.098,-0.018 ± 0.018,0.062 ± 0.018,0.0905 ± 0.049,-0.0045 ± 0.098,-0.028 ± 0.0085,0.0125 ± 0.016,0.0225 ± 0.023,0.0205 ± 0.05,0.055 ± 0.034,0.06 ± 0.0014
HDF3CGF:SRB,0.004 ± 0.0057,-0.002 ± 0.02,-0.011 ± 0.1,0.0055 ± 0.0092,0.008 ± 0.0028,-0.029 ± 0.016,0.0125 ± 0.064,-0.045 ± 0.052,0.022 ± 0.023,0.0825 ± 0.03,0.148 ± 0.034,-0.0005 ± 0.042,0.014 ± 0.0071,0 ± 0.023,0 ± 0.013,-0.015 ± 0.018,0.0175 ± 0.039
HDF3CGF:TIMP-1,0.0075 ± 0.023,0.002 ± 0.011,0 ± 0.055,-0.035 ± 0.0071,-0.0345 ± 0.0078,-0.0015 ± 0.00071,-0.0115 ± 0.0035,-0.0055 ± 0.035,-0.04 ± 0.0042,0.008 ± 0.0071,0.0385 ± 0.0021,-0.0285 ± 0.026,0.0185 ± 0.005,0.036 ± 0.071,-0.0265 ± 0.029,-0.012 ± 0.052,-0.0655 ± 0.074
HDF3CGF:TIMP-2,-0.018 ± 0.0057,-0.008 ± 0.0071,-0.0275 ± 0.0078,0.0075 ± 0.026,-0.0295 ± 0.019,-0.011 ± 0.018,-0.012 ± 0.017,0.014 ± 0.0085,-0.07 ± 0.086,-0.0755 ± 0.028,-0.0595 ± 0.049,-0.029 ± 0.047,0.001 ± 0.0099,-0.01 ± 0.023,-0.018 ± 0.062,0.003 ± 0.047,0.008 ± 0.045
KF3CT:CCL2/MCP-1,-0.0245 ± 0.0021,-0.0045 ± 0.026,0.012 ± 0.013,-0.0235 ± 0.0092,-0.0125 ± 0.037,0.0165 ± 0.021,0.033 ± 0.024,0.0255 ± 0.053,-0.04 ± 0.0028,-0.0335 ± 0.0078,0.009 ± 0.065,0.0035 ± 0.011,-0.0165 ± 0.0092,-0.011 ± 0.013,-0.0175 ± 0.016,-0.0345 ± 0.0078,0.0395 ± 0.028
KF3CT:CD54/ICAM-1,-0.0065 ± 0.015,-0.012 ± 0.0085,-0.014 ± 0.016,-0.01 ± 0.0042,-0.0175 ± 0.0021,-0.023 ± 0.0042,-0.0085 ± 0.0035,-0.0315 ± 0.00071,-0.0045 ± 0.016,-0.024 ± 0.0014,-0.0365 ± 0.0064,0.019 ± 0.0085,0.009 ± 0.018,0.009 ± 0.0071,-0.0055 ± 0.0035,-0.0115 ± 0.00071,-0.02 ± 0.011
KF3CT:CXCL8/IL-8,-0.024 ± 0.02,-0.0035 ± 0.0092,-0.001 ± 0.0071,-0.013 ± 0.037,0.006 ± 0.03,-0.0055 ± 0.0064,0.002,0.0105 ± 0.00071,0.0035 ± 0.015,0.0085 ± 0.0078,0.008 ± 0.0071,0.007 ± 0.016,0.028 ± 0.031,0.017 ± 0.02,-0.0075 ± 0.015,0.005 ± 0.011,0.0515 ± 0.033
KF3CT:CXCL9/MIG,0.007 ± 0.0085,-0.002 ± 0.0099,0.0055 ± 0.0078,0.018 ± 0.014,0.0215 ± 0.023,-0.0085 ± 0.005,-0.0015 ± 0.0035,0.011 ± 0.013,-0.008 ± 0.0042,-0.009 ± 0.0028,-0.0045 ± 0.00071,0.0125 ± 0.0064,0.008 ± 0.0099,0.021 ± 0.0014,-0.022 ± 0.0071,0.0065 ± 0.013,-0.0035 ± 0.019
KF3CT:CXCL10/IP-10,-0.002 ± 0.0028,-0.0005 ± 0.0035,-0.0015 ± 0.022,-0.0085 ± 0.012,-0.0325 ± 0.00071,-0.003 ± 0.018,0.0125 ± 0.026,0.0155 ± 0.023,-0.0155 ± 0.0021,-0.0265 ± 0.0064,-0.039 ± 0.0099,0.011 ± 0.023,0.027 ± 0.034,0.03 ± 0.016,-0.0085 ± 0.00071,-0.0055 ± 0.005,0.003 ± 0.013
KF3CT:IL-1alpha,0.006 ± 0.011,-0.0085 ± 0.013,0.0055 ± 0.039,-0.014 ± 0.0028,-0.0225 ± 0.0035,-0.007 ± 0.018,0.016 ± 0.014,-0.0115 ± 0.0064,0.006 ± 0.0071,-0.0195 ± 0.012,-0.039 ± 0.035,0.0455 ± 0.005,0.01 ± 0.0042,0.0225 ± 0.00071,-0.011 ± 0.025,0.032 ± 0.03,-0.1 ± 0.067
